Source: US12227500B2, “Substituted pyrrolo[2,3-b]pyridines for suppressing toxic endoplasmic reticulum stress” (THE TRUSTEES OF COLUMBIA UNIVERSITY IN THE CITY OF NEW YORK, priority 2018, dated 2025)
Where two headings read alike, the source gives them in different places.

What was measured:
Experiment in all cases: Radiolabeled ATP kinase assay, panel of 60 kinases (Table S5)
Assay type in all cases: biochemical
[1] = biological target: T1, panel of 60 human kinases (Homo sapiens, UniProt O15264); conditions: P38d/MAPK13; 0.1 μM; 10 μM ATP; read-out: % Enzyme Activity (relative to DSMO controls)
T1 construct: purchased Reaction Biology Corp
T1 sequence (O15264 1-365): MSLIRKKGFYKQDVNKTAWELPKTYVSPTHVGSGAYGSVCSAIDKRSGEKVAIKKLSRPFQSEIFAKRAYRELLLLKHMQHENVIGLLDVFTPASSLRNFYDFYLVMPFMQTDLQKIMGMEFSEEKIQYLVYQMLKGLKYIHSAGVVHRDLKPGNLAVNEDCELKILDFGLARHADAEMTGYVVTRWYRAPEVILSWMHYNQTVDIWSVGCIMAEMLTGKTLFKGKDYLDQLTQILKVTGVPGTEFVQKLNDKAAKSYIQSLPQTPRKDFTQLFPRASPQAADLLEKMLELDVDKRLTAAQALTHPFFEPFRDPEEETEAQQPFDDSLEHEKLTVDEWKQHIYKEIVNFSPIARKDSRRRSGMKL
How it was run: (§1)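 Cell-free radiolabeled-ATP kinase assays across a panel of 60 kinases; each compound tested at 0.1 μM and 0.5 μM for inhibition.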

[2] = biological target: T2, panel of 60 human kinases (Homo sapiens, UniProt O60285); conditions: ARK5/NUAK1; 0.1 μM; 10 μM ATP; read-out: % Enzyme Activity (relative to DSMO controls)
T2 construct: purchased Reaction Biology Corp
T2 sequence (O60285 1-661): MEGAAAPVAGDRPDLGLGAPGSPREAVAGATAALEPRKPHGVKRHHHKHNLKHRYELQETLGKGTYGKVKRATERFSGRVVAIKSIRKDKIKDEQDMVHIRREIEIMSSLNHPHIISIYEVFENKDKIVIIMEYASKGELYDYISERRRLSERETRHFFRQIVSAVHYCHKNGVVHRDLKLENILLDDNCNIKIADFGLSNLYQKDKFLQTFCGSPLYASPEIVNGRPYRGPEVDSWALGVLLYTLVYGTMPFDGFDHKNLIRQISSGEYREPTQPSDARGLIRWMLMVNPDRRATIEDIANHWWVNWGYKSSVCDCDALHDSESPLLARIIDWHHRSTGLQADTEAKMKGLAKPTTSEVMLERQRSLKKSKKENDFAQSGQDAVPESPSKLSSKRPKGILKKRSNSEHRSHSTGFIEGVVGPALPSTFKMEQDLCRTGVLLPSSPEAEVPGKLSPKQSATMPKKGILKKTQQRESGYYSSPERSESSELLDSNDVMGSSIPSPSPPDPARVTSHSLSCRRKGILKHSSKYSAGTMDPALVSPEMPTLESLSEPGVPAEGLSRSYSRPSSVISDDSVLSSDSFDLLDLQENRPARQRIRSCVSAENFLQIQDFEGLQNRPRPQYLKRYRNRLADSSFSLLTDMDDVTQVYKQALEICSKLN
How it was run: as §1

[3] = biological target: T3, panel of 60 human kinases (Homo sapiens, UniProt P24941); conditions: 0.1 μM, 10 μM ATP, read-out: % Enzyme Activity (relative to DSMO controls)
T3 construct: purchased Reaction Biology Corp
How it was run: as §1

[4] = biological target: T4, panel of 60 human kinases (Homo sapiens, UniProt P49760); conditions: CLK2; 0.1 μM; 10 μM ATP; read-out: % Enzyme Activity (relative to DSMO controls)
T4 construct: purchased Reaction Biology Corp
How it was run: as §1

[5] = biological target: T5, panel of 60 human kinases (Homo sapiens, UniProt P49840); conditions: GSK3a; 0.1 μM; 10 μM ATP; read-out: % Enzyme Activity (relative to DSMO controls)
T5 construct: purchased Reaction Biology Corp
How it was run: as §1

[6] = biological target: T6, panel of 60 human kinases (Homo sapiens, UniProt Q08345); conditions: DDR1; 0.1 μM; 10 μM ATP; read-out: % Enzyme Activity (relative to DSMO controls)
T6 construct: purchased Reaction Biology Corp
How it was run: as §1

[7] = biological target: T7, panel of 60 human kinases (Homo sapiens, UniProt Q7L7X3); conditions: TAOK1; 0.1 μM; 10 μM ATP; read-out: % Enzyme Activity (relative to DSMO controls)
T7 construct: purchased Reaction Biology Corp
T7 sequence (Q7L7X3 1-1001): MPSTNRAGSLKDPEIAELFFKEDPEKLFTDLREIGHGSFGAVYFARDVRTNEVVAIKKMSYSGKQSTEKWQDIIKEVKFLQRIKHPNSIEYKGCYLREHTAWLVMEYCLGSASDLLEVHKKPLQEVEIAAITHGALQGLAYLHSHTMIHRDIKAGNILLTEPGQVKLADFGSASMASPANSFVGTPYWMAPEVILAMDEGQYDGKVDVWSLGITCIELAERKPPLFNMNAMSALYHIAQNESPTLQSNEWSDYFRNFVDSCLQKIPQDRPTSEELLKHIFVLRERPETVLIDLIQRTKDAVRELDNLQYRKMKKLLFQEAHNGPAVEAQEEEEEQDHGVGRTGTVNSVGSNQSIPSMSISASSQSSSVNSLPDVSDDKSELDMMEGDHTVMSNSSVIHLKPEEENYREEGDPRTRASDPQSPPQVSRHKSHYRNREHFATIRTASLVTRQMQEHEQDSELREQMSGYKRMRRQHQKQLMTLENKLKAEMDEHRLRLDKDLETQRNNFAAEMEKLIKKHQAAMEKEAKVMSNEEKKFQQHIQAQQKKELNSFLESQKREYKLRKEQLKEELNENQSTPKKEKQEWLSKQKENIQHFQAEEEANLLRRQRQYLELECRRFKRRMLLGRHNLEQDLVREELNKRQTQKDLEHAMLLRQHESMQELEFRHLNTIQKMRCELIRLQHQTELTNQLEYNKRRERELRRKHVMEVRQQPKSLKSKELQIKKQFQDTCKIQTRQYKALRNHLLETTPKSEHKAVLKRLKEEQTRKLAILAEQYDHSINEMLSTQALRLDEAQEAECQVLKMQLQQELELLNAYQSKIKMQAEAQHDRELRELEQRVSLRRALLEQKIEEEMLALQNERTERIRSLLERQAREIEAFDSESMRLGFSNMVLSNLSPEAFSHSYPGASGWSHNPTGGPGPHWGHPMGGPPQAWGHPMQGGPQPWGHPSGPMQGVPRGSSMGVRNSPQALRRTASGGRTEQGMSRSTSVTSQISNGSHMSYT
How it was run: as §1

[8] = biological target: T8, panel of 60 human kinases (Homo sapiens, UniProt Q9HAZ1); conditions: CLK4; 0.1 μM; 10 μM ATP; read-out: % Enzyme Activity (relative to DSMO controls)
T8 construct: purchased Reaction Biology Corp
How it was run: as §1

T5 sequence (P49840 whole entry): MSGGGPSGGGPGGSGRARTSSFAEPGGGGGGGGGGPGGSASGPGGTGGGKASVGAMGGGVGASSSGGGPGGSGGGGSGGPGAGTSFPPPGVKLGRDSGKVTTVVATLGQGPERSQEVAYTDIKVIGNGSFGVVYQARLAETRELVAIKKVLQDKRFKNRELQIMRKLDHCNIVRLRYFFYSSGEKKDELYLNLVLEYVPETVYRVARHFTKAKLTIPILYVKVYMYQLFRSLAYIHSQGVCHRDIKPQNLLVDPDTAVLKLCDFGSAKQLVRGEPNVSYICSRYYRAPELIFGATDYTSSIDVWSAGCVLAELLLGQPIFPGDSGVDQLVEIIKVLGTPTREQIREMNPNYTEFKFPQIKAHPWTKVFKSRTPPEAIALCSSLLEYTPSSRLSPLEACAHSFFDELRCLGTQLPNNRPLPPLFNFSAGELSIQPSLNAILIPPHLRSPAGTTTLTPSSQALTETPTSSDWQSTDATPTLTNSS
T6 sequence (Q08345 19-913): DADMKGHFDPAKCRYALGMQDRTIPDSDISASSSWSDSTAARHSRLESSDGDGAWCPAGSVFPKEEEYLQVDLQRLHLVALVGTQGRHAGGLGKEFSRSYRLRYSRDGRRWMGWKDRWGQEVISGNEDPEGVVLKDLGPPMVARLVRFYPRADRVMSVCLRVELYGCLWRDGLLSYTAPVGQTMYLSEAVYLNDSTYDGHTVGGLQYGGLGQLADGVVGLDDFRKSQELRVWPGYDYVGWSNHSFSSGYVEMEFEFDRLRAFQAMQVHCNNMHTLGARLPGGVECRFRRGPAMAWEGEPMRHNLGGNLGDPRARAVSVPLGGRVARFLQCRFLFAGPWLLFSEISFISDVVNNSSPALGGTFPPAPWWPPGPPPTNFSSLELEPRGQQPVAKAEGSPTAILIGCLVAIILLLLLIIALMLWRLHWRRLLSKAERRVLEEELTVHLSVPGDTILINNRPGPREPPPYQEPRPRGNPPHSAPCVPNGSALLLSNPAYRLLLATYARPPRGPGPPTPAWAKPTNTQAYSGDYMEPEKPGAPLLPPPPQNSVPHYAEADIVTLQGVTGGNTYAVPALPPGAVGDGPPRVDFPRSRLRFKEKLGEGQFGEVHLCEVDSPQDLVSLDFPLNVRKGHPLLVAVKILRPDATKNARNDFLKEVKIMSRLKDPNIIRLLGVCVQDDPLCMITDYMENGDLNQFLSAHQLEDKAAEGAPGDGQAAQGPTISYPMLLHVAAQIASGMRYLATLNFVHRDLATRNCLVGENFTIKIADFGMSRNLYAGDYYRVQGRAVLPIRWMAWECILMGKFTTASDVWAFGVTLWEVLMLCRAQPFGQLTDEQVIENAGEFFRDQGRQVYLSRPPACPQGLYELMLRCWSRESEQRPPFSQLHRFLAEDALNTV
T8 sequence (Q9HAZ1 whole entry): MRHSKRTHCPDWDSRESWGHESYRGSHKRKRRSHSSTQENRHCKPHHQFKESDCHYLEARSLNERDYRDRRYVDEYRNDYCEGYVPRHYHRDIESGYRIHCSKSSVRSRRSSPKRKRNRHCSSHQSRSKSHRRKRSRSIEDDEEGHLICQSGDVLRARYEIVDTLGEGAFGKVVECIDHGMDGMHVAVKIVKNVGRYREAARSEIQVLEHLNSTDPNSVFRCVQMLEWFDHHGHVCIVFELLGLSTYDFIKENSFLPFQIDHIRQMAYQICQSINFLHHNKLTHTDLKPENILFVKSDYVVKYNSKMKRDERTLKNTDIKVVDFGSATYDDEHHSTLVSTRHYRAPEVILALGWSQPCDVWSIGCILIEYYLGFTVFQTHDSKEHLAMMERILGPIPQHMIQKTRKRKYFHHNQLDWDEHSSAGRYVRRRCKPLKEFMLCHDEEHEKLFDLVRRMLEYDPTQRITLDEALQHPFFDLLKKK
T4 sequence (P49760 whole entry): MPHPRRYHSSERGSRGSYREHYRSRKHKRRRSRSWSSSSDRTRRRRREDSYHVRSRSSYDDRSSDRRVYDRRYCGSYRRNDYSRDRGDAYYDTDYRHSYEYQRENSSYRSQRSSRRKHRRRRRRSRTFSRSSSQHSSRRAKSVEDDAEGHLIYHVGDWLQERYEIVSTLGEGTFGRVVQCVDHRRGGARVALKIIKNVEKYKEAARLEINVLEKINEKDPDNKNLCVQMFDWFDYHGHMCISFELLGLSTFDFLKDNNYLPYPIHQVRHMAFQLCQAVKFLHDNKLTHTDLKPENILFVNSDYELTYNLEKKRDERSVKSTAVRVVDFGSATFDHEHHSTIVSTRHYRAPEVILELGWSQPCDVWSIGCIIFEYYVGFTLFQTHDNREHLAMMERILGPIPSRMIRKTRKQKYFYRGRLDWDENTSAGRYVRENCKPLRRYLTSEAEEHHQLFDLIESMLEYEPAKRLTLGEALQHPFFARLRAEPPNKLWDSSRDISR

SMILES | remaining activity at 0.1 µM [1] [%] | remaining activity at 0.1 µM [2] [%] | remaining activity at 0.1 µM ([3]; CDK2/cyclin A1) [%] | remaining activity at 0.1 µM ([3]; CDK2/cyclin A) [%] | remaining activity at 0.1 µM ([3]; CDK2/cyclin E) [%] | remaining activity at 0.1 µM ([3]; CDK2/cyclin O) [%] | remaining activity at 0.1 µM [4] [%] | remaining activity at 0.1 µM [5] [%] | remaining activity at 0.1 µM [6] [%] | remaining activity at 0.1 µM [7] [%] | remaining activity at 0.1 µM [8] [%]
Cc1nn(C)c(C)c1-c1c[nH]c2ncc(-c3ccc(CN4CCN(C)CC4)cc3)cc12 [Compound 7ai, 5-(4-((4-Methylpiperazin-1-yl)methyl)phenyl)-3-(1,3,5-trimethyl-1H-pyrazol-4-yl)-1H-pyrrolo[2,3-b]pyridine] | 106 | 21.6 | 87.8 | 90.9 | 94.8 | 77.9 | 52.5 | 84.7 | 76.5 | 93.3 | 78.5
COc1ccccc1-c1c[nH]c2ncc(-c3ccc(CN4CCN(C)CC4)cc3)cc12 [Compound 7at, 3-(2-Methoxyphenyl)-5-(4-((4-methylpiperazin-1-yl)methyl)phenyl)-1H-pyrrolo[2,3-b]pyridine] | 104 | 22.9 | 58.8 | 56.1 | 80.6 | 29.6 | 90.9 | 82.8 | 68.1 | 40.5 | 90.4
CN1CCN(Cc2ccc(-c3cnc4[nH]cc(-c5ccc6[nH]ccc6c5)c4c3)cc2)CC1 [Compound 1, 3-(1H-Indol-5-yl)-5-(4-((4-methylpiperazin-1-yl)methyl)phenyl)-1H-pyrrolo[2,3-b]pyridine, reference compound] | 112 | 5.96 | 83.6 | 83.7 | 97.9 | 72.5 | 22.8 | 90.8 | 47.5 | 63.5 | 59.2
CN1CCN(Cc2ccc(-c3cnc4[nH]cc(-c5cnn(Cc6ccccc6)c5)c4c3)cc2)CC1 [Compound 7ah, 3-(1-Benzyl-1H-pyrazol-4-yl)-5-(4-((4-methylpiperazin-1-yl)methyl)phenyl)-1H-pyrrolo[2,3-b]pyridine] | 109 | 0.03 | 30.7 | 44.2 | 48.9 | 19.2 | 4.24 | 32.5 | 38.3 | 62.1 | 21.8
CN1CCN(Cc2ccc(-c3cnc4[nH]cc(-c5ccc6c(c5)OCCO6)c4c3)cc2)CC1 [Compound 7d, 3-(2,3-Dihydrobenzo[b][1,4]dioxin-6-yl)-5-(4-((4-methylpiperazin-1-yl)methyl)phenyl)-1H-pyrrolo[2,3-b]pyridine] | 98.6 | 20.8 | 38.8 | 34.4 | 89.1 | 39 | 2.71 | 13.6 | 57.4 | 37.3 | 21.3
CN1CCN(Cc2ccc(-c3cnc4[nH]cc(-c5ccoc5)c4c3)cc2)CC1 [Compound 7w, 3-(Furan-3-yl)-5-(4-((4-methylpiperazin-1-yl)methyl)phenyl)-1H-pyrrolo[2,3-b]pyridine] | 112 | 14.8 | 88.6 | 91.1 | 92.4 | 80.2 | 59.2 | 75.3 | 75.2 | 90 | 85.5
CN1CCN(Cc2ccc(-c3cnc4[nH]cc(-c5cccc(Cl)c5)c4c3)cc2)CC1 [Compound 7ad, 3-(3-Chlorophenyl)-5-(4-((4-methylpiperazin-1-yl)methyl)phenyl)-1H-pyrrolo[2,3-b]pyridine] | 119 | 22.4 | 97 | 87.4 | 96.2 | 75.1 | 79.8 | 97.1 | 82 | 75.4 | 87.8
CN1CCN(Cc2ccc(-c3cnc4[nH]cc(-c5ccncc5)c4c3)cc2)CC1 [Compound 7n, 5-(4-((4-Methylpiperazin-1-yl)methyl)phenyl)-3-(pyridin-4-yl)-1H-pyrrolo[2,3-b]pyridine] | 105 | 39.3 | 60.2 | 66 | 54.3 | 43.7 | 23.6 | 75.3 | 79.7 | 87.4 | 72.2
